Source: ChEMBL document CHEMBL1156829 (Proc Natl Acad Sci U S A, 2008)

Legend:
[1] = test system: Plasmodium falciparum; experiment: NOVARTIS: Inhibition of Plasmodium falciparum 3D7 (drug-susceptible) proliferation in erythrocyte-based infection assay; format: functional, organism-based; conditions: Plasmodium falciparum, 3D7
[2] = test system: Plasmodium falciparum; experiment: NOVARTIS: Inhibition of Plasmodium falciparum W2 (drug-resistant) proliferation in erythrocyte-based infection assay; format: functional, organism-based; conditions: Plasmodium falciparum, W2; read-out: EC50
[3] = NOVARTIS: Cytotoxicity against human hepatocellular carcinoma cell line (Huh7); format: toxicity, cell-based, Huh-7; conditions: Huh7 cells (hepatocellular carcinoma cell line)

| SMILES | EC50 [1] [nM] | EC50 [2] [nM] | CC50 [3] [nM] |
| --- | --- | --- | --- |
| CCC(c1nc2ccccc2c(=O)n1-c1ccccc1OC)N(CCc1ccccc1)C(=O)c1ccc(C)cc1 (configuration not stated) | 418 | 174 | > 6690 |
| Cc1ccn2c(NC(C)(C)CC(C)(C)C)c(-c3ccccc3OC(=O)Cc3ccccc3)nc2c1 | 926 | 21.6 | > 10000 |
| CCN1CCN(c2cc(C)c3cc(NC(=O)C=Cc4ccccc4Cl)ccc3n2)CC1 | 546 | 697 | 18400 |
| COc1ccc(/C=C2\SC(=Nc3ccccc3)NC2=O)cc1 | 342 | 233 | > 10000 |
| O=C(Nc1ccc2oc(-c3cccc4ccccc34)nc2c1)c1ccc([N+](=O)[O-])o1 | 5060 | 2650 | > 100000 |
| CC1(C)O[C@@H]2OC([C@@H](O)CNc3ccc([N+](=O)[O-])cc3[N+](=O)[O-])C(O)[C@@H]2O1 (some centres not stated) | 299 | 366 | 12000 |
| c1cncc(CCNc2nccn3c(-c4ccc5ccccc5c4)cnc23)c1 | 115 | 81.2 | 34400 |
| NCC(=O)N1CCn2c(nc(-c3ccccc3)c2Nc2ccc3c(c2)OCO3)C1 | 162 | 198 | > 100000 |
| Cc1ccc(-n2nnnc2SCc2nc(-c3cccc([N+](=O)[O-])c3)no2)c(C)c1 | > 4690 | 1850 | > 100000 |
| CC(=O)N(/C=C1/Sc2ccccc2C1=O)c1ccc(C)cc1 | > 1250 | 2410 | > 10000 |
| Cc1ccccc1N1C(=O)N(c2ccccc2)C2CS(=O)(=O)CC21 (configuration not stated) | 1920 | > 1250 | > 10000 |
| CCN1CCN(Cc2ccc(N(CC)CC)cc2)CC1 | > 12500 | 3080 | > 100000 |
| Clc1cccc(Cl)c1C[n+]1ccc2ccccc2c1 | 1890 | 867 | > 100000 |
| C=CC1CN2CCC1CC2[C@H](O)c1ccnc2ccc(OC)cc12 (some centres not stated) | 11.2 | 45.3 | 56500 |
| O=C1NC(=S)NC1=Cc1ccc(C(F)(F)F)cc1 | > 12500 | 1920 | > 100000 |
| O=C(NCCCCNc1ccnc2cc(Cl)ccc12)C1CCCCC1 | 311 | 198 | > 13300 |
| S=C(NCc1ccco1)NN=CC=NNC(=S)NCc1ccco1 | 121 | 113 | > 10000 |

| SMILES | EC50 [1] [nM] | EC50 [2] [nM] | CC50 [3] [nM] |
| --- | --- | --- | --- |
| O=C(Cn1nc([N+](=O)[O-])nc1Br)NC1CCCCC1 | 4510 | 2660 | > 100000 |
| Cc1c2ccccc2c(C)c2ccccc12 | 803 | 827 | 21600 |
| Cc1ccn2c(NC(C)(C)CC(C)(C)C)c(-c3ccccc3OC(=O)C(C)(C)CCl)nc2c1 | 699 | 76.3 | > 10000 |
| COc1cc2nc(C3CCC3)n(NC(=O)c3cccc(F)c3)c(=O)c2cc1OC | > 1250 | > 1060 | > 10000 |
| c1ccc(CC[n+]2cc(-c3ccccc3)n3c2CCC3)cc1 | 660 | 684 | > 100000 |
| COc1cc(C=CC(=O)Nc2ccc3nc(N4CCN(c5ncccn5)CC4)cc(C)c3c2)cc(OC)c1OC | 841 | 505 | 7420 |
| CC1CCCN(Cc2nnnn2-c2ccc(Cl)cc2)C1 (configuration not stated) | > 1010 | > 1250 | > 10000 |
| Cc1ccc2c(c1)-c1c(ssc1=S)C(C)(C)N2C(=O)c1ccco1 | 276 | 254 | > 100000 |
| Cc1ccc(N=C2C(=O)Nc3ccc(C)c(Br)c32)c(O)c1 | > 963 | > 1250 | > 10000 |
| CC(C)(c1ccc(Oc2ccc(NC(=O)C(F)(F)F)cc2)cc1)c1cccc(Oc2ccc(NC(=O)C(F)(F)F)cc2)c1 | 2060 | > 986 | > 10000 |
| Cn1c(=O)[nH]c(=O)c2c1nc(N1CCCCCC1)n2CC(O)COc1ccc([N+](=O)[O-])cc1 (configuration not stated) | > 12500 | 1860 | > 100000 |
| CC(C)c1ccc(OCC(=O)NN=Cc2cccc([N+](=O)[O-])c2)cc1 | > 1250 | > 1170 | > 10000 |
| O=C(CCl)Nc1ccc(N2CCCCCC2)cc1 | 1260 | 1330 | 19700 |
| CCc1nnc2n1N(C(C)=O)C(c1ccc(Cl)c(Cl)c1)=C(C(C)=O)S2 | > 1250 | > 835 | > 10000 |
| Cc1cccn2c(=O)c3cc(C(=O)NC4CCCC4)c(=N)n(CCc4ccccc4)c3nc12 | 2200 | 3290 | > 100000 |
| Cc1cccc(Nc2c3c(c(C#N)c4nc5ccccc5n24)CCC3)c1 | 92.6 | 51.8 | > 100000 |
| O=S(=O)(NCCCCNc1ccnc2cc(Cl)ccc12)c1ccc(F)cc1 | 341 | 713 | > 10000 |
